Tests used:
Format in all cases: in vivo
[1] = Oral absorption in rats: plasma level by HPLC, AUC; conditions: equimolar amount, in 0.5% aqueous methylcellulose solution, area under plasma level vs time curve
Procedure: (§1) The compound of Synthesis Example 1, the compound of Example 7, and the compound of Example 20 were suspended or dissolved in a 0.5% aqueous methylcellulose solution. The resultant solutions were orally administered in an equimolar amount to dogs and rats. After the administration, the amount of each compound contained in plasma of each animal individual was quantitatively determined by HPLC. The absorption in each specimen was assayed by the area under a medicament level of plasma vs time curve (AUC). As a result, AUCs obtained by the compounds of Examples 7 and 20 as prodrugs were 3 to 4 times higher for the dog and 3 to 7 times higher for the rat compared with the compound of Synthesis Example 1 as an activator body.

[2] = Oral absorption in dogs: plasma level by HPLC, AUC; conditions: equimolar amount, in 0.5% aqueous methylcellulose solution, area under plasma level vs time curve
Procedure: as §1

ICR male mice = ICR male mice (5 weeks old), dose of 2 g/kg, suspension in 0.5% aqueous methylcellulose solution
Description: Acute Toxicity Test by Single Administration
The compound of Example 20 was homogeneously suspended in a 0.5% aqueous methylcellulose solution. The suspension was forcibly orally administered to ICR male mice (5 weeks old).

Compound: COc1cc2[nH]c(=O)c3nn(COC(=O)OC(C)C)nc3c(=O)c2cc1OC [Example 7, 2-(Isopropoxycarbonyloxymethyl)-7,8-dimethoxy-4(5H),10-dioxo-2H-1,2,3-triazolo[4,5-c][1]benzazepine]
- AUC Rat [1]: 0.6 ± 0.1 µM·h
- AUC Dog [2]: 0.9 ± 0.1 µM·h

Compound: COc1cc2[nH]c(=O)c3nn(C(OC(=O)OC(C)C)C(C)C)nc3c(=O)c2cc1OC (stereo not shown) [Example 20, 2-(1-Isopropoxycarbonyloxy-2-methylpropyl)-7,8-dimethoxy-4(5H),10-dioxo-2H-1,2,3-triazolo[4,5-c][1]benzazepine]
- Survival and abnormality after single forced oral administration (ICR male mice): all the mice survived and developed no abnormality
- AUC Rat [1]: 1.4 ± 0.1 µM·h
- AUC Dog [2]: 1.2 ± 0.3 µM·h

Compound: COc1cc2[nH]c(=O)c3nn[nH]c3c(=O)c2cc1OC [Synthesis Example 1, 7,8-Dimethoxy-4(5H),10-dioxo-1H-1,2,3-triazolo[4,5-c][1]benzazepine, reference compound]
- AUC Rat [1]: 0.2 ± 0.1 µM·h
- AUC Dog [2]: 0.3 ± 0.1 µM·h

— US7238812B2, “Tricyclic triazolobenzazepine derivatives, process for producing the same, and antiallergic agents” (Meji Seika Kaisha, Ltd., priority 1997, dated 2007)
